Legend:
[1] = target: Serine/threonine-protein kinase PLK1 (Homo sapiens, UniProt P53350); assay: Inhibition of PLK1 expressed in baculovirus-infected Trichoplusia-ni cells by scintillation proximity assay
HCT-116 = assay: Antiproliferative activity against human HCT116 cells after 3 days by methylene blue stain technique; type: functional, cell-based; conditions: HCT-116, 72 h
[2] = target: Vascular endothelial growth factor receptor 3 (Homo sapiens, UniProt P35916); assay: Inhibition of VEGFR3
Chain of Vascular endothelial growth factor receptor 3 (P35916 whole entry): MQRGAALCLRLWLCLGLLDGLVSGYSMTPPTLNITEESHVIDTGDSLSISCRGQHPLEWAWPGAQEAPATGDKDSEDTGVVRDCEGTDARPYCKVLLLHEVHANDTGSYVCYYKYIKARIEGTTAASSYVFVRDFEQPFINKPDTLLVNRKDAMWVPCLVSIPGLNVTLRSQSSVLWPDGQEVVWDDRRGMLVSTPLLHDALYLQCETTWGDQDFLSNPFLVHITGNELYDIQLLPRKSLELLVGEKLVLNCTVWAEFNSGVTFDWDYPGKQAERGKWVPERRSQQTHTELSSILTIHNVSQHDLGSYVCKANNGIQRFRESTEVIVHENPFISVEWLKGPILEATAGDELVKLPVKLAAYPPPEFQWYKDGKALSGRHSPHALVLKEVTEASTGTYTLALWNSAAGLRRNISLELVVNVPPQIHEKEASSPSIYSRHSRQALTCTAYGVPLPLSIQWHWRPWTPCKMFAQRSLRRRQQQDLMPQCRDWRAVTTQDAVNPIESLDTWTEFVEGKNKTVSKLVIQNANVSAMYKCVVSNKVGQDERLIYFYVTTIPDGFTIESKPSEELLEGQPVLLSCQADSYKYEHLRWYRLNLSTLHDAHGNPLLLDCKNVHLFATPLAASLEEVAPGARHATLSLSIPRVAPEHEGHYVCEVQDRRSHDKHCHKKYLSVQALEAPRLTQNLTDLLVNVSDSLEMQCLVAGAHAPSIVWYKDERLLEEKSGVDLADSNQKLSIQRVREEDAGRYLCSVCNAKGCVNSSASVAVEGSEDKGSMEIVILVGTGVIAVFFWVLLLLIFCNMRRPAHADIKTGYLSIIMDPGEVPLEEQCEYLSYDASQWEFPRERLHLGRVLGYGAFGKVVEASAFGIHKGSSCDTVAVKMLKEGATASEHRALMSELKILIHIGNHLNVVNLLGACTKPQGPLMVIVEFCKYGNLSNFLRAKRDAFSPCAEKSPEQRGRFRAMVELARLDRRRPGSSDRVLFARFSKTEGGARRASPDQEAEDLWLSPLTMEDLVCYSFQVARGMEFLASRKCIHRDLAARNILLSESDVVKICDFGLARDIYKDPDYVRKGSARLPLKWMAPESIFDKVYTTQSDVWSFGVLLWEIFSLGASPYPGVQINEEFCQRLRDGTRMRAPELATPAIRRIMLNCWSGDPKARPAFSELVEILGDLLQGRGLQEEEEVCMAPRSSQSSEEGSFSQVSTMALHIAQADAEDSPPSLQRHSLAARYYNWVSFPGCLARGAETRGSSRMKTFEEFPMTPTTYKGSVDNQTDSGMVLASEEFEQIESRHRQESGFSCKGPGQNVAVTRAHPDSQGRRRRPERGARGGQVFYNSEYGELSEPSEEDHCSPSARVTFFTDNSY

[3] = Inhibition of GSK3
[4] = Volume of distribution at steady state in mouse at 6.7 mg/kg, iv; type: ADME, organism-based; set-up: dose 6.7 mg/kg, route intravenous; conditions: in vivo, read-out: Vdss
A549 = assay: Antiproliferative activity against human A549 cells after 3 days by methylene blue stain technique; type: functional, cell-based; conditions: A549, 72 h
NCI-H460 = assay: Antiproliferative activity against human H460 cells after 3 days by methylene blue stain technique; type: functional, cell-based; conditions: NCI-H460, 72 h
[5] = target: Proto-oncogene tyrosine-protein kinase Src (Homo sapiens, UniProt P12931); assay: Inhibition of Src
Chain of Proto-oncogene tyrosine-protein kinase Src (P12931 2-536 limits assumed): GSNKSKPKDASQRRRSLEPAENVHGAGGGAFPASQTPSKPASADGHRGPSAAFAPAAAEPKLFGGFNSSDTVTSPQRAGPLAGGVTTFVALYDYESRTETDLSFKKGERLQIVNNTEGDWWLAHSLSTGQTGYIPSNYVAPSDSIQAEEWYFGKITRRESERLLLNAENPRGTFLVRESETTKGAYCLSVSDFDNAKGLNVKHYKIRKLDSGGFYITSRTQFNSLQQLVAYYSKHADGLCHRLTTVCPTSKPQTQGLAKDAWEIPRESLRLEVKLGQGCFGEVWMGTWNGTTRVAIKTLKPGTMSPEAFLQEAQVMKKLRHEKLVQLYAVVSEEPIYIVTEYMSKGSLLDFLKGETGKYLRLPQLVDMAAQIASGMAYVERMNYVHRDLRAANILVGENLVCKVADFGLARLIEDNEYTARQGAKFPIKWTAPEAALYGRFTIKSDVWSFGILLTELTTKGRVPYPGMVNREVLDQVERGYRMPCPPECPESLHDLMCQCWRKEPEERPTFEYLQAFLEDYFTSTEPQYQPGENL

NCI-N87 = assay: Antiproliferative activity against human NCI-N87 cells after 3 days by methylene blue stain technique; type: functional, cell-based; conditions: NCI-N87, 72 h
PC-3 = assay: Antiproliferative activity against human PC3 cells after 3 days by methylene blue stain technique; type: functional, cell-based; conditions: PC-3, 72 h
RKO = assay: Antiproliferative activity against human RKO cells after 3 days by methylene blue stain technique; type: functional, cell-based; conditions: 72 h
[6] = Clearance in mouse at 6.7 mg/kg, iv; type: ADME, organism-based; set-up: dose 6.7 mg/kg, route intravenous; conditions: in vivo
[7] = Oral bioavailability in mouse at 10 mg/kg; type: ADME, organism-based; conditions: in vivo
MCF7 = assay: Antiproliferative activity against human MCF7 cells after 3 days by methylene blue stain technique; type: functional, cell-based; conditions: MCF7, 72 h
HN5 = assay: Antiproliferative activity against human HN5 cells after 3 days by methylene blue stain technique; type: functional, cell-based; conditions: HN5, 72 h
[8] = target: Mitogen-activated protein kinase 14 (Homo sapiens, UniProt Q16539); assay: Inhibition of p38alpha
Chain of Mitogen-activated protein kinase 14 (Q16539 whole entry): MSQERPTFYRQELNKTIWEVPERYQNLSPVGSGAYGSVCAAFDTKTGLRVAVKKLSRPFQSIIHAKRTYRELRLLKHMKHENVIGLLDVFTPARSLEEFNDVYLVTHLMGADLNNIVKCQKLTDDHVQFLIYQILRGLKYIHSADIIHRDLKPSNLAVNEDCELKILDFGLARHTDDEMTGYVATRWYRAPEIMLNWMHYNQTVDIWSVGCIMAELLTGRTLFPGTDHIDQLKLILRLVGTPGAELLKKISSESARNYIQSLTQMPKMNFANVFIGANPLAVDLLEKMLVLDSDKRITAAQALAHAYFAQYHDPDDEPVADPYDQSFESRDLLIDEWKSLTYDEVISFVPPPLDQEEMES

[9] = target: Epidermal growth factor receptor (Homo sapiens, UniProt P00533); assay: Inhibition of EGFR
Chain of Epidermal growth factor receptor (P00533 whole entry): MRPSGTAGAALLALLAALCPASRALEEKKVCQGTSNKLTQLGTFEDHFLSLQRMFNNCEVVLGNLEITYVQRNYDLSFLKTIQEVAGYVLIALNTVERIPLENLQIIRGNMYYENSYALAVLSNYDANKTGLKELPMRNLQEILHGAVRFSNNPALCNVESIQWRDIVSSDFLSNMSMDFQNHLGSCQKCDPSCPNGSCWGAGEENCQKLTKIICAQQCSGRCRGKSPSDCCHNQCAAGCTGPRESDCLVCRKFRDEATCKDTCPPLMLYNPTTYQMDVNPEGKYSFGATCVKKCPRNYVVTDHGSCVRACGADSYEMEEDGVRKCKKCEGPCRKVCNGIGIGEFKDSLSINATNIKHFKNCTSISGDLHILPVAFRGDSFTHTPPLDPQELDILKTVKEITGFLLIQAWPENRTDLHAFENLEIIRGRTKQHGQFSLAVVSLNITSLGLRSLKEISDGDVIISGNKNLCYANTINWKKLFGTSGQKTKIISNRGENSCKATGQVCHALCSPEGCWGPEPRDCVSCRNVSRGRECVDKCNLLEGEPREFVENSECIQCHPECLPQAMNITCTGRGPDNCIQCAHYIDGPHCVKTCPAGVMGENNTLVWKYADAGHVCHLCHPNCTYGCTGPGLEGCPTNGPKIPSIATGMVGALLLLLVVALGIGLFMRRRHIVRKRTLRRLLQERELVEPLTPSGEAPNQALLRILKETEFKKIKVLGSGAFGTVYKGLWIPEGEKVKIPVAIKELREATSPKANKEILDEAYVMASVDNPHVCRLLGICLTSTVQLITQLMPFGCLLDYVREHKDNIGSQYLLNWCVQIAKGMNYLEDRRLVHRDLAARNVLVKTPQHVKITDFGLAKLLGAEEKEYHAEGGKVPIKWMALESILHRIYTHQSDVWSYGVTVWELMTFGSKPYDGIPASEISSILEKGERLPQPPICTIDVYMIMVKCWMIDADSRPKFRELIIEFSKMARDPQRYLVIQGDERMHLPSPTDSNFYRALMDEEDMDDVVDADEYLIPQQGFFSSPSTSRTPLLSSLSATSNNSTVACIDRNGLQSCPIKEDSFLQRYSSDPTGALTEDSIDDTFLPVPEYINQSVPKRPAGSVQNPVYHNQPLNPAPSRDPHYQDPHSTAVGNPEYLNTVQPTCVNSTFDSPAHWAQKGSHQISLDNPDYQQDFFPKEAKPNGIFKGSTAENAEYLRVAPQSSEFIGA

[10] = AUC in mouse at 10 mg/kg, po; type: ADME, organism-based; set-up: dose 10 mg/kg, route oral; conditions: plasma

Chain of Serine/threonine-protein kinase PLK1 (P53350 whole entry): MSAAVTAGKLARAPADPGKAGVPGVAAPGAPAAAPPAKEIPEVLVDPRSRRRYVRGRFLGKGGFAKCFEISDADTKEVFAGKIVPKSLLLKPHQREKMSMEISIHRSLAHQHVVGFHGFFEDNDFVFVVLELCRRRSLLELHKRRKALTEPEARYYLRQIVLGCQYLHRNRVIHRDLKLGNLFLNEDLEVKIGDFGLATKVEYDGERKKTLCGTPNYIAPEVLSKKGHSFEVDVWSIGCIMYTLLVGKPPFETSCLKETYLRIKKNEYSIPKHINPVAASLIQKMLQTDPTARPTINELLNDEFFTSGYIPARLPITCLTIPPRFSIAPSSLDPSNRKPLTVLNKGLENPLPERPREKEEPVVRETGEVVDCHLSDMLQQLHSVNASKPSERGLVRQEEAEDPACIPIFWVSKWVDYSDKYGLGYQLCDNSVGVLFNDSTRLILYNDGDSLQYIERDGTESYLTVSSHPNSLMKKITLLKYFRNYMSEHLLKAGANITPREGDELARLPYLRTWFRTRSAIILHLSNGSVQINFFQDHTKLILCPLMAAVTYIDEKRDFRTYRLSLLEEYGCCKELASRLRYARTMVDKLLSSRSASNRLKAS

IC50 [1] [nM]	IC50 (HCT-116) [nM]	Compound	also measured
9	3590	NC(=O)c1sc(-n2cnc3ccc(C(F)(F)F)cc32)cc1OCc1ccccc1Br [GW853606X]	
100		NC(=O)c1sc(-n2cnc3ccccc32)cc1OCc1ccc(Cl)cc1	
6	2630	COc1cc2ncn(-c3cc(OCc4ccccc4C#N)c(C(N)=O)s3)c2cc1OC	
28		COc1cccc(COc2cc(-n3cnc4ccccc43)sc2C(N)=O)c1 [GW804482X]	
21	2270	COc1cc2ncn(-c3cc(OCc4cccc(N)c4)c(C(N)=O)s3)c2cc1OC	
8	2700	COc1ccc2c(c1)ncn2-c1cc(OCc2ccccc2C(F)(F)F)c(C(N)=O)s1	
> 1000		COc1cc2ncn(-c3cc(OCc4ccccc4C(F)(F)F)c(C(=O)N(C)C)s3)c2cc1OC [GSK-1030062A]	
17	2640	COc1cc2ncn(-c3cc(OCc4ccccc4C(C)=O)c(C(N)=O)s3)c2cc1OC	
> 1000		COC(=O)c1sc(-n2cnc3cc(OC)c(OC)cc32)cc1OCc1ccccc1C(F)(F)F [GSK-1030058A]	
2	999	COc1cc2ncn(-c3cc(OCc4ccccc4Cl)c(C(N)=O)s3)c2cc1OC [GW852849X]	
12		Cc1ccccc1COc1cc(-n2cnc3ccccc32)sc1C(N)=O	
75	> 30000	COc1cc2ncn(-c3cc(OCc4ccc(S(C)(=O)=O)cc4)c(C(N)=O)s3)c2cc1OC	
8	2110	COc1ccccc1COc1cc(-n2cnc3cc(OC)c(OC)cc32)sc1C(N)=O	
21	> 28000	Cc1ccccc1COc1cc(-n2cnc3cc(Cl)ccc32)sc1C(N)=O	
2	926	COc1cc2ncn(-c3cc(OCc4ccccc4Br)c(C(N)=O)s3)c2cc1OC	
2	699	COc1cc2ncn(-c3cc(OCc4ccccc4C(F)(F)F)c(C(N)=O)s3)c2cc1OC [GW843682X]	IC50 [2]: 92 nM; IC50 [3]: > 15000 nM; Vd [4]: 1.5 L/kg; IC50 (A549): 411 nM; IC50 (NCI-H460): 380 nM; IC50 [5]: > 30000 nM; IC50 (NCI-N87): 601 nM; IC50 (PC-3): 6820 nM; IC50 (RKO): 398 nM; clearance [6]: 47.4 mL/min/kg; bioavailability [7]: 14%; IC50 (MCF7): 558 nM; IC50 (HN5): 678 nM; IC50 [8]: > 15000 nM; IC50 [9]: > 48000 nM; AUC [10]: 489 ng·h/mL
31	3470	COc1cc2ncn(-c3cc(OCc4cccc(N(C)C)c4)c(C(N)=O)s3)c2cc1OC	
13	12100	COc1ccc(COc2cc(-n3cnc4cc(OC)c(OC)cc43)sc2C(N)=O)cc1	
300	> 30000	NC(=O)c1sc(-n2cnc3cc(C(F)(F)F)ccc32)cc1OCc1ccccc1Br [GW853609X]	
130	21000	COc1cc2ncn(-c3cc(OCc4ccncc4)c(C(N)=O)s3)c2cc1OC	
> 1000		CNC(=O)c1sc(-n2cnc3cc(OC)c(OC)cc32)cc1OCc1ccccc1C(F)(F)F [GSK-1030061A]	
22		NC(=O)c1sc(-n2cnc3ccccc32)cc1OCc1cccc(Cl)c1	
11		NC(=O)c1sc(-n2cnc3ccccc32)cc1OCc1ccccc1Br [GSK-1023156A]	
99	> 30000	COc1cc2ncn(-c3cc(OCc4cccc(C#N)c4)c(C(N)=O)s3)c2cc1OC	
5	1150	COc1cc2ncn(-c3cc(OCc4ccccc4OC(F)(F)F)c(C(N)=O)s3)c2cc1OC	

IC50 [1] [nM]	IC50 (HCT-116) [nM]	Compound	also measured
12		COc1ccccc1COc1cc(-n2cnc3ccccc32)sc1C(N)=O	
2	1230	COc1ccc2ncn(-c3cc(OCc4ccccc4C(F)(F)F)c(C(N)=O)s3)c2c1	
2	1480	COc1cc2ncn(-c3cc(OCc4sccc4Cl)c(C(N)=O)s3)c2cc1OC	
12	2960	CS(=O)(=O)c1ccc2ncn(-c3cc(OCc4ccccc4C(F)(F)F)c(C(N)=O)s3)c2c1	
70		Cc1ccc(COc2cc(-n3cnc4ccccc43)sc2C(N)=O)cc1	
	24100	COc1cc2ncn(-c3cc(OCCc4ccccc4)c(C(N)=O)s3)c2cc1OC [GSK-204925A]	
85		COc1cc2ncn(-c3cc(OCc4ccccc4C(F)(F)F)c(C(C)=O)s3)c2cc1OC [GSK-1030059A]	
	3090	COc1cc2ncn(-c3cc(OCC4CCCCC4)c(C(N)=O)s3)c2cc1OC	
12		NC(=O)c1sc(-n2cnc3ccccc32)cc1OCc1ccccc1Cl	
31	5430	COc1cc2ncn(-c3cc(OCc4ccccc4S(C)(=O)=O)c(C(N)=O)s3)c2cc1OC	
	7660	COc1cc2ncn(-c3cc(OCc4ccccc4C(F)(F)F)c(C(=O)O)s3)c2cc1OC	
	7750	COc1cc2ncn(-c3cc(OCCCc4ccccc4)c(C(N)=O)s3)c2cc1OC	
700		COc1cc2ncn(-c3cc(OCc4ccccc4C(F)(F)F)c(C#N)s3)c2cc1OC	
14	1770	COc1cc2ncn(-c3cc(OCc4ccnc(Br)c4)c(C(N)=O)s3)c2cc1OC	
12		Cc1cccc(COc2cc(-n3cnc4ccccc43)sc2C(N)=O)c1	
6	> 30000	COc1cc2ncn(-c3cc(OCc4ccccc4C(F)(F)F)c(C(N)=S)s3)c2cc1OC	
14		NC(=O)c1sc(-n2cnc3ccccc32)cc1OCc1ccccc1F	
12	1090	COc1cc2ncn(-c3cc(OCc4ccccc4)c(C(N)=O)s3)c2cc1OC	
4	1690	Cc1ccccc1COc1cc(-n2cnc3ccc(Cl)cc32)sc1C(N)=O	
61		NC(=O)c1sc(-n2cnc3ccccc32)cc1OCc1ccccc1	
34	3380	COc1cc2ncn(-c3cc(OCC4CCCC4)c(C(N)=O)s3)c2cc1OC	
35		COc1ccc(COc2cc(-n3cnc4ccccc43)sc2C(N)=O)cc1	
250	> 30000	CS(=O)(=O)c1ccc2c(c1)ncn2-c1cc(OCc2ccccc2C(F)(F)F)c(C(N)=O)s1	
	> 30000	COc1cc2ncn(-c3cc(OCc4ccccc4C(F)(F)F)c(-c4nnn[nH]4)s3)c2cc1OC	

Compound	IC50 [1] [nM]	IC50 (HCT-116) [nM]	also measured
COc1cc2ncn(-c3cc(OCc4cccs4)c(C(N)=O)s3)c2cc1OC [GSK-312948A]	11	1540	
COc1cc2ncn(-c3cc(OCc4ccco4)c(C(N)=O)s3)c2cc1OC	27	> 25000	
COc1cc2ncn(-c3cc(OCc4ccsc4)c(C(N)=O)s3)c2cc1OC	17	1520	
COc1cc2ncn(-c3cc(OCc4ccoc4)c(C(N)=O)s3)c2cc1OC	190	19000	
